Results on three compounds are retold here after patent publication US20190226949A1, “IRIDIUM COMPLEXES FOR CELLULAR IMAGING” (UNIVERSITY OF SOUTH AUSTRALIA, priority 2016, published 2019).

Where “and” joins values, the source holds several entries; their conditions need not be identical. Equal values may be shown once.

Data set [1] is described as follows: Photophysical measurements (absorption, emission, lifetime, quantum yield) in diluted solutions. The format is physicochemical. Conditions: for Emission λem / τaer, excited state lifetime (relative weight in parentheses) / τdeaer, excited state lifetime (relative weight in parentheses): 298K; for Φaer, quantum yield / Φdeaer, quantum yield: versus Ru(bpy)3^2+ in water (φr = 0.028); for τdeaer, excited state lifetime (relative weight in parentheses) / Φdeaer, quantum yield: deaerated; for knr: calculated as [(1 − φ)/τ] from deaerated solutions; for kr: calculated as [φ/τ] from deaerated solutions; for Φ, quantum yield: versus Ru(bpy)3^2+ in water; for red-shift of emission from ethyl laurate to dichloromethane: ethyl laurate vs dichloromethane. From the text:
A summary of the photophysical data for the complexes as diluted solutions (10^−5 M) in dichloromethane, water, PBS, lysosomal fluid solution, and ethyl laurate is reported in Table 1. All the listed aqueous media also contain 0.1% DMSO to favour the solubilisation of the complexes. The various solvents have been chosen to identify potential modulations on the photophysical behaviour of the iridium complexes in diverse cellular environments such as cytoplasm, endosome/lysosomes acidic organelles, or lipid-rich compartments like membranes, endoplasmic reticulum, and lipid droplets. In general, the photophysical characteristics were measured in aerated solutions to take into account the presence of oxygen in live cells. On the other hand, dichloromethane solutions were compared as aerated and degassed to confirm oxygen sensitivity and triplet character of the excited states of the complexes.
Absorption spectra were recorded at room temperature using a Cary 4000 UV/Vis spectrometer. Uncorrected steady state emission and excitation spectra were recorded on an Edinburgh FLSP980-S2S2-stm spectrometer equipped with: i) a temperature-monitored cuvette holder; ii) 450 W Xenon arc lamp; iii) double excitation and emission monochromators; iv) a Peltier cooled Hamamatsu R928P photomultiplier tube (spectral range 200-870 nm). Emission and excitation spectra were corrected for source intensity (lamp and grating) and emission spectral response (detector and grating) by a calibration curve supplied with the instrument. According to the approach described by Demas and Crosby, luminescence quantum yields (Φem) were measured in optically dilute solutions (O.D.<0.1 at excitation wavelength) obtained from absorption spectra on a wavelength scale [nm] and compared to the reference emitter by the following equation: […]
where A is the absorbance at the excitation wavelength (λ), I is the intensity of the excitation light at the excitation wavelength (λ), n is the refractive index of the solvent, D is the integrated intensity of the luminescence and Φ is the quantum yield. The subscripts r and x refer to the reference and the sample, respectively. The quantum yield determinations were performed at identical excitation wavelength for the sample and the reference, therefore cancelling the I(λr)/I(λx) term in the equation. The quantum yields of complexes were measured against Rubipy in water (Φr=0.028). Emission lifetimes (z) were determined with the time correlated single photon counting technique (TCSPC) with the same Edinburgh FLSP980-S2S2-stm spectrometer using either a pulsed picosecond LED (EPLED/EPL 377 nm, FHWM<800 ps) or a microsecond flashlamp. The goodness of fit was assessed by minimising the reduced χ^2 function and by visual inspection of the weighted residuals. The solvents used for the preparation of the solutions for the photophysical investigations were of LR grade and the water was deionised. Degassing of the dichlorometane solutions was performed using the freeze-pump-thaw method. Experimental uncertainties are estimated to be ±8% for lifetime determinations, ±20% for quantum yields, ±2 nm and ±5 nm for absorption and emission peaks, respectively.

A short description of data set [2]: Lipophilicity by shake-flask method (7.4-buffered PBS / n-octanol). Format: physicochemical. Conditions: pH 7.4; 7.4-buffered PBS solution and n-octanol; read-out: logD7.4, distribution coefficient. The method, then:
The lipophilicity of the iridium complexes was measured by the shake-flask method using 7.4-buffered PBS and n-octanol as solvents (Table 2). The values range between 1.49 and 2.68 are typical for cyclometalated iridium complexes that have not been bioconjugated. […] In general, neutral complexes have log D7.4 values above 2.00 and there is an increased in lipophilicity of extending the tetrazolato ligand with the addition of a phenyl spacer in [Ir(ppy)2(TzPyPhCN)], or by extending the conjugation on passing from pyridine to quinoline or isoquinoline for [Ir(ppy)2(TzQn)] and [Ir(ppy)2(TziQn)]. Methylation in all cases reduces lipophilicity to log D7.4 values […], with the same trend within the family of methylated complexes as previously observed for the neutral ones.

The test system of data set [3] is H9c2 rat cardiomyoblast cells. The data set is described as follows: Staining and co-staining of live H9c2 cells, confocal and two-photon microscopy. Format: cell-based. Conditions: for cellular localisation (co-staining): live H9c2, 20 μM, 30 minutes; for emission profile from cells: live H9c2, one-photon or two-photon excitation. Here is the method:
Live H9c2 rat cardiomyoblasts were incubated with the iridium complexes for 30 minutes. Complexes were made to a final concentration of 20 μM in the cell culture medium with DMSO concentration <0.2%. Under these conditions, the luminescence from the iridium complexes within the cells was detected via confocal microscopy under single-photon excitation (403 nm) or two-photon excitation (810-840 nm).
To determine the localisation of the iridium complexes, co-staining experiments were carried out with the use of ER-Tracker™ Red (endoplasmic reticulum), LysoTracker® Red DND-99 (acidic compartments), MitoTracker® Red (mitochondria), BODIPY® 500/510 C1, C12(fatty acid) or β-BODIPY® FL HPC (phospholipids). […] This difference was also in agreement with the trend of the quantum yield data illustrated before and detection of internalised complex by ICP-MS.
H9c2 rat cardiomyoblast cell line was a kind gift from Professor Janna Morrison (University of South Australia). The H9c2 cells were maintained in high-glucose (4500 mg/L) DMEM medium (Sigma-Aldrich, USA) containing 10% fetal bovine serum (FBS; In Vitro Technologies, USA) and 2 mM L-glutamine (Sigma-Aldrich, USA) at 37° C. and 5% CO2. The H9c2 cells were cultured in […] flasks, and cells (1×10^6 cells/mL) that had been passaged, from two up to five times were used for experiments. For live cell imaging and MTS assay, the H9c2 cells (1×10^5 cells/mL) were cultured overnight in either ibidi μ-Slide 8 wells in a final volume of 250 μL or 96-well microtiter plate in a final volume of 200 μL in absence of Ir-based molecular probes.
The H9c2 cells were incubated with 20 μM of Ir-based molecular probes for 30 minutes in FBS-free media (300 μL) at 37° C. and 5% CO2. These cells were washed twice with phosphate buffered saline (PBS) and once with FBS-free media, and then co-stained with either ER-Tracker™ Red (BODIPY® TR Glibenclamide), LysoTracker® Red DND-99, MitoTracker® Red CMXRos (1H,5H,11H,15H-Xantheno[2,3,4-ij:5,6,7-i′j′]diquinolizin-18-ium, 9-[4-(chloromethyl)phenyl]-2,3,6,7,12,13,16,17-octahydro-, chloride), β-BODIPY® FL C5-HPC (2-(4,4-Difluoro-5,7-Dimethyl-4-Bora-3a,4a-Diaza-s-Indacene-3-Pentanoyl)-1-Hexadecanoyl-sn-Glycero-3-Phosphocholine) or BODIPY® 500/510 C1, C12 (4,4-Difluoro-5-Methyl-4-Bora-3a,4a-Diaza-s-Indacene-3-Dodecanoic Acid), which were obtained from Life Technologies Australia Pty Ltd, Australia. Cell biology analysis was carried out with a minimum of two experimental groups. Imaging analysis was performed using a Nikon A1+ confocal microscope equipped with 403 nm, 488 nm, 561 nm and 640 nm solid-state lasers (Nikon, Japan) and OKOLab Microscope Incubator (Okolab USA Inc., USA). The final preparation of the images was conducted with Adobe Photoshop CC (Adobe Systems Inc., USA).
The H9c2 cells were incubated with 20 μM of Ir-based molecular probes for 30 minutes in FBS-free media (300 μL) at 37° C. and 5% CO2. These cells then were washed with phosphate buffered saline (PBS) and imaged using Zeiss LSM710 META NLO inverted microscope supplemented with a two-photon Mai-Tai®, tunable Ti:Sapphire femtosecond pulse laser (710-920 nm, Spectra-Physics). Fluorescence of Ir-based molecular probes was detected using the following settings: two-photon excitation wavelength 830 nm, beam splitter MBS 690+, emission interval 520-650 nm. The H9c2 cells were exposed to two-photon illumination between 810-840 nm. A continuum of lambda stack images was captured across the emission spectrum 416-728 nm. The images were acquired using a Plan-APOCHROMAT 63X/NA1.4 oil immersion objective. The final preparation of the images was conducted with Adobe Photoshop CC (Adobe Systems Inc., USA).

Turning to `C[n+]1nc2[n](n1)[Ir]13([c]4ccccc4-c4cccc[n+]41)([c]1ccccc1-c1cccc[n+]13)[n+]1ccc3ccccc3c1-2` [[Ir(ppy)2(MeTziQn)]^+], in data set [1] (DCM, 10^−5 M), the “Absorption λabs [nm] (10^4ε [M^−1cm^−1])” value was 253 (6.96) nm (10^4ε [M^−1cm^−1]) and 303 (2.45) nm (10^4ε [M^−1cm^−1]) and 371 (1.24) nm (10^4ε [M^−1cm^−1]); the “Emission λem” value was determined as 640 nm. Moreover, in data set [1] (DCM, aerated), the “τaer, excited state lifetime (relative weight in parentheses)” value (shortened to “τaer … (relative weight in parentheses)”) is 208 ns and the “Φaer, quantum yield” value stood at 0.049. In data set [1] (DCM), the “τdeaer, excited state lifetime (relative weight in parentheses)” value (“τdeaer … (relative weight in parentheses)” for short) worked out at 485 ns; the “Φdeaer, quantum yield” value is listed as 0.063; the knr is given as 1.932 10^6s^−1; the kr is reported as 1.299 10^5s^−1. Also, the “Absorption λabs [nm] (10^4ε [M^−1cm^−1])” value in data set [1] (H2O with 0.1% DMSO, 10^−5 M) is 251 (6.64) nm (10^4ε [M^−1cm^−1]) and 291 (2.60) nm (10^4ε [M^−1cm^−1]) and 355 (1.36) nm (10^4ε [M^−1cm^−1]). Moreover, in data set [1] (H2O with 0.1% DMSO, aerated), the “Emission λem” value was 660 nm and the “Φ, quantum yield” value is 0.004. Besides, in data set [1], the “red-shift of emission from ethyl laurate to dichloromethane” value is “almost no shift is observed”. In data set [2], the logD worked out at 1.49 ± 0.06. In data set [3], the “cellular localisation (co-staining)” value was “preferential localisation in the endoplasmic reticulum and fatty acids and phospholipids”; the “emission profile from cells” value is “red-shifted consistently with the photophysical data”.

As to `C[n+]1nc2[n](n1)[Ir]13([c]4ccccc4-c4cccc[n+]41)([c]1ccccc1-c1cccc[n+]13)[n+]1cc(-c3ccc(C#N)cc3)ccc1-2` [[Ir(ppy)2(MeTzPyPhCN)]^+], in data set [1] (DCM, 10^−5 M), the “Absorption λabs [nm] (10^4ε [M^−1cm^−1])” value is 267 (3.39) nm (10^4ε [M^−1cm^−1]) and 290 (3.14) nm (10^4ε [M^−1cm^−1]) and 378 (0.40) nm (10^4ε [M^−1cm^−1]); the “Emission λem” value worked out at 600 nm. In data set [1] (DCM, aerated), the “τaer … (relative weight in parentheses)” value came to 184 ns and the “Φaer, quantum yield” value came out at 0.057. For the same compound, in data set [1] (DCM), the “τdeaer … (relative weight in parentheses)” value worked out at 434 ns; the “Φdeaer, quantum yield” value was found to be 0.093; the knr was 2.090 10^6s^−1; the kr is given as 2.143 10^5s^−1. Further, in data set [1] (H2O with 0.1% DMSO, aerated), the “Emission λem” value is 605 nm and the “Φ, quantum yield” value is listed as 0.005. In data set [1] (PBS vs lysosomal fluid solution), the “red-shift of emission on passing from a PBS to a lysosomal fluid solution” value is listed as 22 nm. For the same compound, the “red-shift of emission from ethyl laurate to dichloromethane” value in data set [1] is recorded as “almost no shift is observed”. In addition, in data set [2], the logD was 1.87 ± 0.08. In addition, in data set [3], the “cellular localisation (co-staining)” value is “staining pattern consistent with mitochondrial localisation”; the “emission profile from cells” value is “blue-shifted and almost superimposable bands between these cationic complexes and their neutral analogues”.

Turning to `C[n+]1nc2[n](n1)[Ir]13([c]4ccccc4-c4cccc[n+]41)([c]1ccccc1-c1cccc[n+]13)[n+]1c-2ccc2ccccc21` [[Ir(ppy)2(MeTzQn)]^+], the “Emission λem” value in data set [1] (DCM, 10^−5 M) came out at 635 nm. Also, in data set [1] (DCM, aerated), the “τaer … (relative weight in parentheses)” value came to 218 ns and the “Φaer, quantum yield” value is given as 0.028. Also, in data set [1] (DCM), the “τdeaer … (relative weight in parentheses)” value is recorded as 546 ns; the “Φdeaer, quantum yield” value was found to be 0.043; the knr is 1.753 10^6s^−1; the kr is on record as 0.788 10^5s^−1. Moreover, in data set [1] (H2O with 0.1% DMSO, 10^−5 M), the “Absorption λabs [nm] (10^4ε [M^−1cm^−1])” value was 251 (8.30) nm (10^4ε [M^−1cm^−1]) and 307 (2.52) nm (10^4ε [M^−1cm^−1]) and 364 (1.09) nm (10^4ε [M^−1cm^−1]). Also, in data set [1] (H2O with 0.1% DMSO, aerated), the “Emission λem” value is 630 nm and the “Φ, quantum yield” value was 0.004. For the same compound, the logD in data set [2] came out at 1.68 ± 0.05. Further, in data set [3], the “cellular localisation (co-staining)” value was “preferential localisation in the endoplasmic reticulum and fatty acids and phospholipids”; the “emission profile from cells” value was “blue-shifted and almost superimposable bands between these cationic complexes and their neutral analogues”.
